Measurements reported in ChEMBL document CHEMBL1156236, “Trypanoside, anti-tuberculosis, leishmanicidal, and cytotoxic activities of tetrahydrobenzothienopyrimidines” (Bioorg Med Chem, 2010).
pIC50: −log10 of the molar value.

Columns and labels:
DU-145 = test: Cytotoxicity against human DU145 cells; format: functional
[1] = tested on: Mycobacterium tuberculosis; test: Antitubercular activity against Mycobacterium tuberculosis H37Rv ATCC 27294 after 7 days by microplate alamar blue assay; format: functional; conditions: H37Rv ATCC 27294, 168 h
Leishmania amazonensis = test: Antileishmanial activity against Leishmania amazonensis MHOM/BR/76/LTB-012 amastigotes infected BALB/c mouse macrophages after 48 hrs by MTT assay; format: functional, organism-based; conditions: MHOM/BR/76/LTB-012, 48 h
K562 = test: Cytotoxicity against human K562 cells; format: functional
[2] = Selectivity index, ratio of IC50 for BALB/c mouse macrophages to IC50 for Leishmania amazonensis MHOM/BR/76/LTB-012
M14 = test: Cytotoxicity against human M14 cells; format: functional
HT-29 = test: Cytotoxicity against human HT-29 cells; format: functional
NCI-H460 = test: Cytotoxicity against human NCI-H460 cells; format: functional
[3] = Cytotoxicity against BALB mouse 3T3 cells; format: cell-based; conditions: BALB 3T3 cells
MCF7 = test: Cytotoxicity against human MCF7 cells; format: functional
[4] = Cytotoxicity against BALB/c mouse macrophages after 48 hrs by trypan blue dye exclusion method; format: cell-based; conditions: Macrophage
Trypanosoma cruzi = test: Antitrypanosomal activity against Trypanosoma cruzi tulahuen C4 trypomastigotes infected in african green monkey Vero cells assessed as CPRG cleavage after 120 hrs by microplate reader; format: functional, organism-based
[5] = Selectivity index, ratio of IC50 for african green monkey Vero cells to IC50 for Trypanosoma cruzi tulahuen C4
Vero = test: Cytotoxicity against african green monkey Vero cells after 72 hrs by MTS assay; conditions: Chlorocebus sabaeus, Vero, 72 h

SMILES | GI50 (DU-145) | MIC [1] | pIC50 (Leishmania amazonensis) | GI50 (K562) | Ratio IC50 [2] | GI50 (M14) | GI50 (HT-29) | GI50 (NCI-H460) | GI50 [3] | GI50 (MCF7) | pIC50 [4] | pIC50 (Trypanosoma cruzi) | selectivity ratio ([5]; Vero cells) | pIC50 (Vero) | selectivity ratio ([5]; vero)
C(=N\Nc1ncnc2sc3c(c12)CCCC3)/c1ccncc1 | 83.9 µM | > 300 µM | 3.63 | 109 µM | 0.7 | > 150 µM | 153 µM | 169 µM | 83.2 µM | 83.9 µM | 3.81 | < 4.60 |  |  | 
O=c1[nH]cc(F)c(=O)[nH]1 [FLUOROURACIL] | 5.3 µM |  |  | 89.9 µM |  | 32.4 µM |  | 2.3 µM | < 3 µM | 4.5 µM |  |  |  |  | 
Fc1ccccc1/C=N/Nc1ncnc2sc3c(c12)CCCC3 | > 250 µM | > 300 µM | 5.48 | 81.2 µM | 3.1 | > 250 µM | > 250 µM | > 250 µM | > 250 µM | > 250 µM | 4.99 | 4.97 | 1.7 | 4.74 | 
COc1cc(/C=N/Nc2ncnc3sc4c(c23)CCCC4)cc(OC)c1O | 27.2 µM | > 250 µM | 4.39 | > 170 µM | 3 | > 170 µM | > 170 µM | > 170 µM | 27.3 µM | > 170 µM | 3.92 | < 4.60 |  |  | 
COc1ccc(/C=N/Nc2ncnc3sc4c(c23)CCCC4)c(OC)c1 | 20 µM | > 250 µM | 4.48 | 7.9 µM | 4.3 | 94.4 µM | 20 µM | 29.5 µM | 19.9 µM | 21.1 µM | 3.84 | 4.73 | 1.8 | 4.49 | 
C(=N\Nc1ncnc2sc3c(c12)CCCC3)/c1ccc2c(c1)OCO2 | > 250 µM | > 250 µM | 4.53 | > 250 µM | 0.6 | > 250 µM | > 250 µM | > 250 µM | > 250 µM | 117 µM | 4.79 | 4.64 | 0.7 | 4.77 | 
Cc1ccc(/C=N/Nc2ncnc3sc4c(c23)CCCC4)cc1 | > 170 µM | > 250 µM | 4.37 | 7.1 µM | 0.5 | > 170 µM | > 170 µM | 133 µM | 37.5 µM | 12.9 µM | 4.71 | < 4.60 |  |  | 
N#Cc1ccc(/C=N/Nc2ncnc3sc4c(c23)CCCC4)cc1 | > 170 µM | > 300 µM | 4.49 | > 170 µM | 5 | > 170 µM | > 170 µM | > 170 µM | 150 µM | 102 µM | 3.79 | < 4.60 |  |  | 
O=[N+]([O-])c1ccccc1/C=N/Nc1ncnc2sc3c(c12)CCCC3 | 103 µM | > 250 µM | 3.97 | > 170 µM |  | > 170 µM | > 170 µM | 52.9 µM | > 170 µM | 52 µM | < 3.70 | < 4.60 |  |  | 
C=CCOc1cc(/C=N/Nc2ncnc3sc4c(c23)CCCC4)cc(OCC=C)c1Br | < 2 µM | > 200 µM | 5.28 | 3.9 µM | 0.7 | 12.8 µM | 3.9 µM | 3.1 µM | < 2 µM | 3.8 µM | 5.46 | 4.81 | 0.4 | 5.22 | 
c1ccc(C(=NNc2ncnc3sc4c(c23)CCCC4)c2ccccc2)cc1 | > 170 µM | > 250 µM | 3.74 | > 170 µM | 0.9 | > 170 µM | > 170 µM | > 170 µM | > 170 µM | > 170 µM | 3.81 | < 4.60 |  |  | 
COc1cc(/C=N/Nc2ncnc3sc4c(c23)CCCC4)ccc1O |  |  | 5.14 |  |  |  |  |  |  |  |  |  |  |  | 
CC(C)(C)c1ccc(/C=N/Nc2ncnc3sc4c(c23)CCCC4)cc1 | 21.9 µM | > 250 µM | 5.77 | 6.4 µM | 3.8 | 30.3 µM | 15.7 µM | 6.4 µM | 23.2 µM | 6.3 µM | 5.18 | 4.95 | 1.2 | 4.86 | 
COc1cc(/C=N/Nc2ncnc3sc4c(c23)CCCC4)cc(OC)c1OC | 22.5 µM | > 250 µM | 5.14 | 4.7 µM | 1.2 | 15.6 µM | 11.4 µM | 28.3 µM | 22.5 µM | 10.5 µM | 5.05 | < 4.60 |  |  | 
C[C@@H]1[C@H](O)[C@@H](C)/C=C/C=C/C=C/C=C/C=C/C=C/C=C/[C@H](O[C@@H]2O[C@H](C)[C@@H](O)[C@H](N)[C@@H]2O)C[C@@H]2O[C@](O)(C[C@@H](O)C[C@@H](O)[C@H](O)CC[C@@H](O)C[C@@H](O)CC(=O)O[C@H]1C)C[C@H](O)[C@H]2C(=O)O [AMPHOTERICIN B] |  |  |  |  | 54 |  |  |  |  |  | 5.27 |  |  |  | 
C(=N\Nc1ncnc2sc3c(c12)CCCC3)/c1cccc2ccccc12 | 24.1 µM | > 250 µM | 4.90 | 4.7 µM | 1.3 | 18.4 µM | 6.2 µM | 19.9 µM | 16.7 µM | 6.3 µM | 4.78 | 4.89 | 0.2 | 5.55 | 
CC(C)c1ccc(/C=N/Nc2ncnc3sc4c(c23)CCCC4)cc1 | 10.8 µM | > 250 µM | 5.44 | 4.1 µM | 2.3 | 17.8 µM | 5.9 µM | 5.9 µM | 9.4 µM | 5.2 µM | 5.08 | 5.28 | 0.5 | 5.54 | 
O=[N+]([O-])c1ccc(/C=N/Nc2ncnc3sc4c(c23)CCCC4)cc1 | > 170 µM | > 250 µM | 4.41 | > 170 µM | 5.2 | > 170 µM | > 170 µM | > 170 µM | > 170 µM | > 170 µM | 3.70 | < 4.60 |  |  | 
CC1CS(=O)(=O)CCN1/N=C/c1ccc([N+](=O)[O-])o1 (centres undefined) [NIFURTIMOX] |  |  |  |  |  |  |  |  |  |  |  | 5.35 |  | 4.03 | 20.8
C(=N\Nc1ncnc2sc3c(c12)CCCC3)/c1ccc2ccccc2c1 | 24.1 µM | > 250 µM | 4.41 | 6.2 µM | 0.4 | 35.2 µM | 19.4 µM | 20.8 µM | 27.9 µM | 9.3 µM | 4.80 | 4.88 | 1.1 | 4.86 | 
